The text below walks through data of patent publication US7101701B2, “Method to reduce contamination when culturing mycobacteria” (The Trustees of the University of Pennsylvania, priority 2004, dated 2006).

Where no end group is shown, it is not given here.

One data set deals with chymotrypsin. The note with it: Pep5 variant; cited from earlier work.
A further data set relates to at least some strains. The note with it: when used with at least some strains; cited from earlier work.
For the next data set, the system named is MAP ATCC# 700535. Nature of the data set: MGIT 960 liquid culture of MAP isolate dilutions, time to positive. The format is cell-based, Mycobacterium avium subsp. paratuberculosis. The note with it: for TTP (days): 600 ul EY. The method, then:
(§1) Middlebrook 7H9 broth was prepared by suspending 4.7 grams Middlebrook 7H9 dehydrated base (BD Diagnostics, Sparks, Md.) in 900 ml of double distilled water. The solution was autoclaved for 20 minutes at 121° C., and stored in a refrigerator when not in use. A 50% egg yolk suspension was stored in a refrigerator. Nisin was prepared in 1–2 M hydrochloride acid (HCl) at a concentration of 100 mg/ml. ANV cocktail (5 mg/ml) was prepared from the individual antibiotics and stored frozen.
Dilutions of MAP ATCC# 700535 were prepared as follows. A working stock vial, at 10^−2, stored at −70° C. freezer, was thawed in a 37° C. incubator. Using individually-wrapped, sterile glass pipettes, a serial dilution series was made in sterile 15 ml conical tubes. One (1) ml of MAP at 10^−2 was diluted into 9 ml of 7H9 medium and mixed well to yield a 10^−3 solution. One ml of this solution was diluted into another tube of 9 ml 7H9 to yield a 10^−4 solution. This process was repeated again to produce a 10^−5 solution. The serial dilutions were plated on HEYM flasks, 100 ul dilution per flask, and placed in an incubator.
(§2) Cultures were set up in MGIT™ tubes (BD Diagnostics, Sparks, Md.). MGIT™ tubes contain an oxygen-sensitive fluorescent compound, tris 4,7-diphenyl-1,10-phenanthroline ruthenium chloride pentahydrate, in silicone base that detects growth by increased fluorescence as oxygen consumption in the culture increases. The tubes were barcoded for scanning in a BACTEC™ MGIT™ 960 machine (BD Diagnostics, Sparks, Md.).
(§3) Vials of nisin and ANV, stored in a standard freezer, were thawed in a 37° C. incubator. Egg yolk, OADC or OACC (BD Diagnostics, Sparks, Md.) and 7H9, stored in a standard refrigerator, were warmed in a 37° C. incubator. Using sterile pipet tips (autoclaved), components were aliquoted into barcoded MGIT™ culture tubes as follows: OADC or OACC (800 μl); 50% egg yolk suspension (600 μl except for […] control tubes having 60 μl. The volume difference in volume made up by 7H9); 7H9; 5 mg/ml ANV (30 μl); 100 mg/ml nisin (quantity determined by desired final concentration); and organism sample (100 μl). 7H9 was added at the quantity needed to bring the final volume of each tube to 8.9 ml, so that the tubes had identical head space. After all components were added, tubes were tightly capped and inverted three times. The tubes were placed in the MGIT™ 960 machine and scanned in after they registered as unknown at the next hourly reading.
(§4) The experiment was designed to test a MAP isolate (ATCC# 700535) at three different concentrations (MAP 10^−3, MAP 10^−4 and MAP 10^−5). Three field samples (processed fecal matter) named Annabelle, Heidi and Meck 42 were also tested in the experiment. Seven conditions were tested for effectiveness against bacterial contamination in mycobacterial cultures: ANV alone, five different nisin concentrations and HCl, the diluent for nisin. Generally, each sample was tested in triplicate for each solution. There were eleven additional control tubes; two tubes for additives (5 μl nisin and 30 μl ANV) and 9 tubes for weekly performance (no ANV and 60 μl 50% egg yolk suspension; WP). The WP tubes were used to monitor test performance and reproducibility over time.

Data set [1] deals with bacterial contamination and MAP in processed fecal field samples (Annabelle, Heidi, Meck 42). Nature of the data set: MGIT 960 liquid culture of processed fecal field samples, time to positive / contamination. The format is cell-based, Mycobacterium avium subsp. paratuberculosis. As to conditions: for TTP (days): 50000 ug nisin per tube, 1 tube only. The protocol: as §1
Vials of processed fecal field samples, Annabelle, Heide and Meck 42, stored at −70° C., were thawed in a 37° C. incubator. The samples had been previously processed according to the Cornell modified decontamination and inoculation method as described in Whitlock et al., supra (2000).
as §2, §3, §4

Another data set concerns Acid Fast bacillus. Kind of data set: Acid fast smears (Ziehl-Neelson) of culture tubes. It counts as cell-based, Mycobacterium avium subsp. paratuberculosis. The note with it: for Acid Fast Results or CFUs: per replicate tube. From the text: One of the most distinctive properties of Mycobacteria is the impermeability of their lipid-rich cell walls to various basic dyes, unless the dye is combined with phenol. Once stained, the cells resist decolorization with acidified organic solvents, and are, therefore called “acid fast.” Acid fast staining methods include, but are not limited to, Ziehl-Neelsen (ZN) carbolfuchsin staining, fluorochrome staining (auromine O and rhodamine B) and Kinyoun carbolfuchsin staining.

Setting [2] is: Meck and Annabelle samples, tubes 4F and 7F (10000 ug nisin).

Take “A19C Pep5: Pep5 variant from the literature (TAGPAIRASVKQCQKTLKCTRLFTVSCKGKNGCK; also: lantibiotic Pep5: thioether rings and dehydro residues not placed; UniProt P19578 27-60, looked up, variant A19C)”: in the data set on chymotrypsin, the stability to chymotrypsin result is “more stable to chymotrypsin”.

Regarding “L6V gallidermin: gallidermin variant from the literature (IASKFVCTPGCAKTGSFNSYCC; cysteine pairing not given here; also: lantibiotic lanthionine modifications not placed; UniProt P21838 31-52, looked up, variant L6V)”, the antibacterial activity result in the data set on at least some strains is listed as “enhanced antibacterial activity”.

“nisin (ITSISLCTPGCKTGALMGCNMKTATCHCSIHVSK; cysteine pairing not given here; also: lantibiotic lanthionine modifications not placed; UniProt P13068 24-57, looked up) [34 amino acid pentacyclic class A lantibiotic peptide produced by Lactococcus lactis; stock 100 mg/ml in HCl]”: the “TTP (days)” value was 19.3–20.6–No gu's with MAP ATCC# 700535 (MAP 10^−4, 500 ug nisin per tube, three replicate tubes); “No gu's” with MAP ATCC# 700535 (MAP 10^−4, 50000 ug nisin per tube); 32.4–38.7–2 gu's in the data set with MAP ATCC# 700535 (MAP 10^−5, 5000 ug nisin per tube, three replicate tubes); 43.7 (1 tube only) days in data set [1] (Annabelle field sample); “No gu's (1 tube only)” in data set [1] (Heidi field sample); 54.4 (1 tube only) days in data set [1] (Meck 42 field sample). In addition, the “reduction of TTP compared to 30 ul ANV” value with MAP ATCC# 700535 (nisin at 10,000 ug/tube, tubes 3A and 3F (MAP 10^−5)) is given as “approximately 30%”. Further, the “inhibitory effect on MAP growth” value in the data set on MAP ATCC# 700535 (nisin with 600 ul EY) is “little inhibitory effect on MAP growth”. The “time to recover TNTC animals” value in data set [1] (600 ul 50% egg yolk suspension, nisin approximately 5000 to 10,000 ug per tube) is less than 15 days. For the same substance, in data set [1] (setting [2]), the “time at which tubes flagged positive” value was 14 to 17 days. Also, the “control of non-mycobacterial contamination and MAP growth” value in data set [1] (field samples, particularly at 10,000 ug nisin) was “controlled non-mycobacterial contamination with little retardation of MAP growth”. In addition, the “Acid Fast Results or CFUs” value in the data set on Acid Fast bacillus (Annabelle field sample, 10000 ug nisin per tube) is 4+Pos–4+Pos–ND; with Acid Fast bacillus (Heidi field sample, 500 ug nisin per tube) it was 4+Pos–4+Pos–ND; in the data set with Acid Fast bacillus (Heidi field sample, 1000 ug nisin per tube) it was 4+Pos–4+Pos–ND; with Acid Fast bacillus (Heidi field sample, 5000 ug nisin per tube), 4+Pos–3+Pos–ND; with Acid Fast bacillus (Heidi field sample, 10000 ug nisin per tube) it was 4+Pos–ND–ND; with Acid Fast bacillus (MAP 10^−3, 10000 ug nisin per tube), 4+Pos–4+Pos–ND. Besides, the “Acid Fast Results or CFUs” value with Acid Fast bacillus (Meck 42 field sample, 1000 ug nisin per tube) is listed as “ND–ND–4+Pos”; with Acid Fast bacillus (Meck 42 field sample, 5000 ug nisin per tube), “BC–4+Pos–4+Pos”; with Acid Fast bacillus (Meck 42 field sample, 10000 ug nisin per tube), “ND–4+Pos–4+Pos”. Moreover, in the data set with Acid Fast bacillus (setting [2]), the “AFB (acid-fast bacilli smears)” value is 4+Positive.
